The text below walks through data of patent US4839343A, “Preparation containing hexatriacontapeptides and methods of use” (Debiopharm, S.A., priority 1987, dated 1989).

The test system of assay [1] is patient seriously affected by bacteremic (endotoxic) shock. Description: Treatment of patient with bacteremic (endotoxic) shock by intravenous peptide infusion. The assay is classed as in vivo, human. Here is the method:
A patient seriously affected by bacteremic (endotoxic) shock was admitted in an intensive care unit and treated with dopamine given intravenously at doses of 10 and 20 mcg/kg/min.
A solution of NPY was then given by intravenous infusion at increasing doses of 0.01 to 50 pmol/kg/min over a period of 10 hours.

Assay [2] has as its system Normotensive male Wistar rats. Kind of assay: Endotoxin-induced blood pressure fall in adrenal-demedullated conscious rats, i.v. NPY infusion. It is filed as in vivo, rat. The protocol:
Normotensive male Wistar rats were subjected to adrenal demedullation on the right side and either adrenolectomized or sham-operated on the left side. Ten days later a solution of NPY in non-alkaline saline was given as an intravenous infusion (70 ng/min) to these conscious semi-restrained animals. A group of control animals received only the saline diluent. During the last 75 minutes of the experiment, endotoxin (LPs E. Coli 0111: B4, 10 mcg/min i.v.) was administered both in NPY-treated and control animals.

Assay [3] relates to Conscious normotensive rats. Description: Pressor response to norepinephrine in conscious normotensive rats infused with endotoxin and/or NPY. It is filed as in vivo, rat. The protocol:
Conscious normotensive rats were divided into six groups. Rats of Group II and IV were infused intravenously with NPY (0.1 mcg/min for 75 min). A further two groups of rats (I and III) received the vehicle of the peptide ([…]) for the same period. Escherichia Coli endotoxin (lipopolysaccharide E. Coli 0.111: B4, Difco Laboratories, Detroit, MI), 10 mcg/10 mcl/min was infused starting 15 min after the beginning of the NPY-infusion (Group IV) or its vehicle (Group III). The remaining rats (Groups I and […]) were given the vehicle of endotoxin, 10 mcl/min i.v. In all these rats, a dose-response curve to intravenous injections of norepinephrine was obtained 5 min after ending the administration of NPY. The infusion of endotoxin or its vehicle was continued throughout this period. In two additional groups rats infused for 45 min with endotoxin or its vehicle, a 2 ml blood sample was obtained via the arterial catheter for determination of plasma NPY levels.
The endotoxin was dissolved in 0.9% NaCl to achieve a concentration of […]. NPY was diluted with 0.1M HCl to a concentration of 10 mg/l. Aliquots containing 15 mcg were stored frozen at -70° C. and thawed immediately before use. The different solutions were infused using a syringe pump (Model 455, Sage Instrument, White Plains, NY). Norepinephrine (Arterenol, Hoechst, Frankfurt-am-Main, FRG) was diluted in 0.9% NaCl to attain a concentration of 20 ng/20 mcl. Using a 250 mcl glass syringe (Hamilton), the dose of norepinephrine was increased by altering the volume injected.

With `NCCc1ccc(O)c(O)c1` [dopamine, reference compound], the “arterial pressure of the patient under dopamine alone” value in assay [1] (dopamine i.v. 10 and 20 mcg/kg/min, before NPY) is reported as “continued to fall”.
neuropeptide Y [NPY]: in assay [1] (NPY i.v. infusion 0.01 to 50 pmol/kg/min over 10 hours, each time tachycardia was observed), the “effect on concomitant dopamine dose” value is “allowed a decrease in the dose of dopamine”. The “arterial pressure of the patient” value in assay [1] (NPY i.v. infusion, increasing doses 0.01 to 50 pmol/kg/min over 10 hours, with dopamine) is listed as “normalization of arterial pressure”. Besides, the “reduction of intraarterial mean blood pressure during endotoxin infusion” value in assay [2] (NPY 70 ng/min i.v. infusion, endotoxin 10 mcg/min i.v. for last 75 min, 12 rats, baseline 116±1.6 mm Hg, controls dropped 40±6.4 mm Hg, 2 of 9 died) was 8±2.1 mm Hg. For the same compound, in assay [2] (another group of rats, NPY 70 ng/min i.v., no endotoxin), the “effect of NPY infusion alone on blood pressure” value is reported as “no significant effect on blood pressure”. For the same compound, in assay [3] (NPY 0.1 mcg/min i.v. 75 min, norepinephrine 20, 40, 80, 160 ng, p<0.001, <0.01, <0.001, <0.05), the “pressor effects of norepinephrine after NPY infused alone (Group II) versus control (Group I)” value is recorded as “significantly enhanced”. For the same compound, the “blood pressure response to norepinephrine in endotoxin plus NPY rats (Group IV) versus control rats (Group I)” value in assay [3] (NPY 0.1 mcg/min i.v. 75 min plus endotoxin, all norepinephrine doses tested) is “no longer any significant difference”. In addition, the “blood pressure response to norepinephrine in endotoxin-treated rats (Group IV) versus endotoxin alone (Group III)” value in assay [3] (NPY 0.1 mcg/min i.v. 75 min plus endotoxin, norepinephrine 20, 40, 80, 160 ng i.v., p<0.05, <0.01, <0.01, <0.05) is on record as “significantly greater than in those animals receiving endotoxin alone”. In assay [3] (NPY 0.1 mcg/min i.v. for 75 min, alone or in combination with endotoxin 10 mcg/min), the “effect on blood pressure or heart rate before norepinephrine injections” value was “no significant effect on blood pressure or heart rate”. In assay [3] (last norepinephrine dose given 50 min after stopping the NPY infusion), the “duration of NPY-induced facilitation of norepinephrine evoked changes in blood pressure” value is given as “long-lasting”.
